Values quoted from earlier work in patent US20050129764A1, “Osmotic device containing licofelone” (priority 2003, published 2005).

Columns and labels:
[1] = single dose (800-3,200) mg, volunteers
[2] = 200 mg dose administered twice daily
[3] = tested on: osteoarthritis of the knee; details: phase III

elimination half-life (T1/2β) [2]: 8.7 to 11.1 h
peak plasma licofelone concentrations [2]: 1650 to 1750 ng/mL
time post-dose at which peak plasma concentrations were reached [2]: 0.74 to 4 h
SMILES: CC1(C)Cc2c(-c3ccccc3)c(-c3ccc(Cl)cc3)c(CC(=O)O)n2C1 [licofelone]
tolerability [1]: generally well tolerated
activity in animal experiments: antiphlogistic, analgesic, antipyretic, antiasthmatic and antiaggregative activity
gastrointestinal damage at active dosage (animal experiments): no gastrointestinal damage
improvement in efficacy parameters ([3]; licofelone 400 mg/day bid): greatest improvement in efficacy parameters
efficacy in long-term treatment of osteoarthritis of the knee vs naproxen ([3]; n=704, licofelone 200 and 400 mg/day bid, naproxen 1000 mg/day bid): at least as effective as naproxen
